Results on 5 compounds are retold here after patent publication US6858580B2, “Mixtures of drug-oligomer conjugates comprising polyalkylene glycol, uses thereof, and methods of making same” (Nobex Corporation, priority 2001, dated 2005).

Data set [1] is described as follows: Enzymatic stability: trypsin digest of calcitonin-oligomer conjugates. In kind it is in vitro ADME. The note with it: 10 mM phosphate buffer, control tube without enzyme, pH 7.4, Control tube (1 mM HCl, no enzyme). As for the experimental part: (§1) Compounds, supplied as lyophilized powders, are resuspended in 10 mM phosphate buffer pH 7.4 and then submitted for concentration determination by HPLC. The phosphate buffer is used to create a solution with a pH that is optimum for activity of each particular gut enzyme. Aliquots of the compound thus prepared are transferred to 1.7 mL microcentrifuge tubes and shaken in a 37° C. water bath for 15 minutes to allow compounds to equilibrate to temperature. After 15 minutes, 2 μL of the appropriate concentrated gut enzyme is added to each tube to achieve the final concentration desired. Chymotrypsin and trypsin are resuspended in 1 mM HCl. Also, as a control, compounds are treated with 2 μL of 1 mM HCl. Immediately following additions, 100 μL of sample is removed from the control tube and quenched with either 25 μL of chymotrypsin/trypsin quenching solution (1:1 1% TFA:Isopropanol). This sample will serve as T=0 min. A sampling procedure is repeated at various time intervals depending on the gut enzyme used. Chymotrypsin has 15, 30 and 60 minute samples. Trypsin has 30, 60, 120 and 180 minute samples. Once all points have been acquired, a final sample is removed from the control tube to make sure that observed degradation is not temperature or buffer related. The chymotrypsin and trypsin samples may be collected directly into HPLC vials. RP-BPLC (acetonitrile gradient) is used to determine AUC for each sample and % degradation is calculated based from the T=0 min control. The results are provided below in Tables 1 to 4.

A short description of data set [2]: Enzymatic stability: chymotrypsin digest of calcitonin-oligomer conjugates. In kind it is in vitro ADME. As for the experimental part:
as §1, with “Chymotrypsin has 15, 30 and 60 minute samples.” left out, “The chymotrypsin and trypsin samples may be collected directly into HPLC vials.” left out, “The results are provided below in Tables 1 to 4.” left out

In the next data set the test system is Male CF-1 mice. Description: Serum calcium lowering after single oral dose in fasted mice. In kind it is in vivo. The following applies: single oral dose 2.0 μg/kg, average serum calcium. As for the experimental part:
Male CF-1 mice (Charles River, Raleigh, N.C.) weighing […] were housed in the Nobex vivarium in a light—(L:D cycle of 12:12, lights on at 0600 h), temperature—(21-23° C.), and humidity—(40-60% relative humidity) controlled room. Animals were permitted free access to laboratory chow (PMI Nutrition) and tap water. Mice were allowed to acclimate to housing conditions for 48-72 hours prior to the day of experiment.
Prior to dosing, mice were fasted overnight and water was provided ad libitum. Mice were randomly distributed into groups of five animals per time point and were administered a single oral dose of a PEG7-octyl-sCT, diconjugate (Octyl Di) according to the present invention or salmon calcitonin (sCT or Calcitonin) for comparison purposes. […]
At appropriate time points, mice were ether-anesthetized, the vena cavae exteriorized, and blood samples were obtained via a syringe fitted with a 25-gauge needle. […] Total serum calcium was determined for each animal using a calibrated Vitros DT60 II analyzer.
Serum calcium data were plotted and pharmacokinetic parameters determined via curve-fitting techniques using SigmaPlot software Version 4.1). Means and standard deviations (or standard errors) were calculated and plotted to determine effect differences among dosing groups.

In data set [3] the test system is normal fasted beagle dogs. Description: Activity and inter-subject variability, oral liquid formulation, fasted beagle dogs. The data set is classed as in vivo. The note with it: 0.25 mg/kg oral liquid, fasted beagles, blood glucose. An excerpt: As yet another example, a substantially monodispersed mixture of drug-oligomer conjugates preferably has an inter-subject variability that is less than the inter-subject variability of a polydispersed mixture of drug-oligomer conjugates having the same number average molecular weight as the substantially monodispersed mixture. As will be understood by those skilled in the art, the number average molecular weight of the substantially monodispersed mixture and the number average weight of the polydispersed mixture may be measured by various methods including, but not limited to, size exclusion chromatography. The inter-subject variability may be measured by various methods as will be understood by those skilled in the art. The inter-subject variability is preferably calculated as follows. The area under a dose response curve (AUC) (i.e., the area between the dose-response curve and a baseline value) is determined for each subject. The average AUC for all subjects is determined by summing the AUCs of each subject and dividing the sum by the number of subjects. The absolute value of the difference between the subject's AUC and the average AUC is then determined for each subject. The absolute values of the differences obtained are then summed to give a value that represents the inter-subject variability. Lower values represent lower inter-subject variabilities and higher values represent higher inter-subject variabilities.
An effective animal model for evaluating formulations uses normal fasted beagle dogs. These dogs are given 0.25 mg/kg of insulin conjugates to evaluate the efficacy of various formulations.
The protocol for dog experiments calls for a blood glucose measurement at time zero just before a drug is administered. The oral liquid dosage formulation is then squirted into the back of the dog's mouth. In each case, the dogs received 0.25 mg/kg of this solution. Blood is drawn at 15, 30, 60 and 120 minutes and glucose levels are measured and graphed. The lower the glucose levels, the better the activity of the insulin conjugate.

In the case of `COCCOCCOCCOCCOCCOCCOCCOCCCCCCCC(=O)NCCCC[C@H](NC(=O)CNC(=O)[C@H](CC(C)C)NC(=O)[C@@H](NC(=O)[C@@H]1CSSC[C@H](N)C(=O)N[C@@H](CO)C(=O)N[C@@H](CC(N)=O)C(=O)N[C@@H](CC(C)C)C(=O)N[C@@H](CO)C(=O)N[C@@H]([C@@H](C)O)C(=O)N1)C(C)C)C(=O)N[C@@H](CC(C)C)C(=O)N[C@@H](CO)C(=O)N[C@@H](CCC(N)=O)C(=O)N[C@@H](CCC(=O)O)C(=O)N[C@@H](CC(C)C)C(=O)N[C@@H](Cc1c[nH]cn1)C(=O)N[C@@H](CCCCNC(=O)CCCCCCCOCCOCCOCCOCCOCCOCCOCCOC)C(=O)N[C@@H](CC(C)C)C(=O)N[C@@H](CCC(N)=O)C(=O)N[C@H](C(=O)N[C@@H](Cc1ccc(O)cc1)C(=O)N1CCC[C@H]1C(=O)N[C@@H](CCCNC(=N)N)C(=O)N[C@H](C(=O)N[C@@H](CC(N)=O)C(=O)N[C@H](C(=O)NCC(=O)N[C@@H](CO)C(=O)NCC(=O)N[C@H](C(=O)N1CCC[C@H]1C(N)=O)[C@@H](C)O)[C@@H](C)O)[C@@H](C)O)[C@@H](C)O`, the remaining at 1 h was 103% in data set [1] (time 60 min) and 104% in data set [2] (10 mM phosphate buffer, control tube without enzyme, pH 7.4, Control tube (1 mM HCl, no enzyme), Non-Formulated, time 60 min). The remaining at 2 h in data set [1] (time 120 min) is 106%. Also, in data set [1] (time 180 min), the remaining at 3 h was determined as 104%. Further, the “% Baseline Calcium Drop at 2.0 μg/kg dose” value with Male CF-1 mice is recorded as 21.0%.
On to “PEG4-hexyl-insulin, monoconjugate: non-polydispersed mixture of mPEG4-hexyl-insulin, B29 monoconjugates”, for which, in data set [3], the “activity (glucose lowering) versus polydispersed PEG7AVG-hexyl-insulin, monoconjugate” value was “higher activity” and the “inter-subject variability versus polydispersed PEG7AVG-hexyl-insulin, monoconjugate” value is given as “less inter-subject variability”.
Consider “PEG7-hexyl-insulin, monoconjugate: human insulin monoconjugated at the B29 position with the activated oligomer of Example 18”, for which, in data set [3], the “activity (glucose lowering) versus polydispersed PEG7AVG-hexyl-insulin, monoconjugate” value is “higher activity” and the “inter-subject variability versus polydispersed PEG7AVG-hexyl-insulin, monoconjugate” value was “less inter-subject variability”.
“PEG10-hexyl-insulin, monoconjugate: non-polydispersed mixture of mPEG10-hexyl-insulin, B29 monoconjugates”: in data set [3], the “activity (glucose lowering) versus polydispersed PEG7AVG-hexyl-insulin, monoconjugate” value is reported as “higher activity” and the “inter-subject variability versus polydispersed PEG7AVG-hexyl-insulin, monoconjugate” value was “less inter-subject variability”.
With `CC(C)C[C@H](NC(=O)[C@H](CCCCN)NC(=O)CNC(=O)[C@H](CC(C)C)NC(=O)[C@@H](NC(=O)[C@@H]1CSSC[C@H](N)C(=O)N[C@@H](CO)C(=O)N[C@@H](CC(N)=O)C(=O)N[C@@H](CC(C)C)C(=O)N[C@@H](CO)C(=O)N[C@@H]([C@@H](C)O)C(=O)N1)C(C)C)C(=O)N[C@@H](CO)C(=O)N[C@@H](CCC(N)=O)C(=O)N[C@@H](CCC(=O)O)C(=O)N[C@@H](CC(C)C)C(=O)N[C@@H](Cc1c[nH]cn1)C(=O)N[C@@H](CCCCN)C(=O)N[C@@H](CC(C)C)C(=O)N[C@@H](CCC(N)=O)C(=O)N[C@H](C(=O)N[C@@H](Cc1ccc(O)cc1)C(=O)N1CCC[C@H]1C(=O)N[C@@H](CCCNC(=N)N)C(=O)N[C@H](C(=O)N[C@@H](CC(N)=O)C(=O)N[C@H](C(=O)NCC(=O)N[C@@H](CO)C(=O)NCC(=O)N[C@H](C(=O)N1CCC[C@H]1C(N)=O)[C@@H](C)O)[C@@H](C)O)[C@@H](C)O)[C@@H](C)O` [Salmon Calcitonin, salmon calcitonin, reference compound], the remaining at 10 min in data set [2] (chymotrypsin (0.5 U/mL) in phosphate buffer, pH 7.4, Non-Formulated, time 10 min, pH 7.4, 37° C., read-out: % Remaining Following 0.5 U/mL Chymotrypsin Digest) stood at 73%.
